According to ChEMBL document CHEMBL1201862, “PubChem BioAssay data set” (2004):
Active and inactive are the calls of the source.

Legend:
[1] = target: T1, Corticotropin-releasing factor receptor 2/Corticotropin-releasing factor-binding protein (Homo sapiens, UniProt P24387+Q13324); assay: activators of CRF receptor 2 with binding protein – uHTS hits, confirmation (AID 602473); format: functional; conditions: read-out: EC50_Mean
T1 sequence (Q13324 whole entry): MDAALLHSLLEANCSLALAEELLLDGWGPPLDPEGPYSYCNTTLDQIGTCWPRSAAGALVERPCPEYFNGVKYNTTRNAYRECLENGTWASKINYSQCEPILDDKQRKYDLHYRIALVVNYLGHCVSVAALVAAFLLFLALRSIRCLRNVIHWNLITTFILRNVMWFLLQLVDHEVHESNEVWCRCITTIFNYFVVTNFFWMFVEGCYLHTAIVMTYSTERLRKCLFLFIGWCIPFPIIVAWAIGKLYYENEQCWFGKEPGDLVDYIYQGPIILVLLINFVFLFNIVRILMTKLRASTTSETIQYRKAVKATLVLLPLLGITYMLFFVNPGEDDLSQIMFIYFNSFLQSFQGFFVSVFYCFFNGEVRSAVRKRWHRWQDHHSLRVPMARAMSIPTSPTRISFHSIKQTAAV
T1 sequence (P24387 whole entry): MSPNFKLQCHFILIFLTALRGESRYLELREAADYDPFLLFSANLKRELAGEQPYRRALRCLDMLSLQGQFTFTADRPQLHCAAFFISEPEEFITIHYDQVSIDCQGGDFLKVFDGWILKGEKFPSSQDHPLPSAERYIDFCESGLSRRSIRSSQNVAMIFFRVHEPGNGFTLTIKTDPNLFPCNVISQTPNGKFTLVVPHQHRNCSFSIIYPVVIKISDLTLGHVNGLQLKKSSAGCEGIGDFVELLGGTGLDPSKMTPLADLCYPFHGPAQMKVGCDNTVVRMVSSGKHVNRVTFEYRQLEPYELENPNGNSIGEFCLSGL

[2] = target: T1, Corticotropin-releasing factor receptor 2/Corticotropin-releasing factor-binding protein; assay: Dose Response confirmation of uHTS hits for small molecule antagonists of the CRF-binding protein and CRF-R2 receptor complex.; format: functional; conditions: read-out: IC50_Mean
[3] = target: T2, Replicative DNA helicase DnaB (Mycobacterium tuberculosis, UniProt P9WMR3); assay: DnaB intein splicing inhibitors, dose response, biochemical, cell-free fluorescence (AID 449749); format: functional
T2 sequence (P9WMR3 whole entry): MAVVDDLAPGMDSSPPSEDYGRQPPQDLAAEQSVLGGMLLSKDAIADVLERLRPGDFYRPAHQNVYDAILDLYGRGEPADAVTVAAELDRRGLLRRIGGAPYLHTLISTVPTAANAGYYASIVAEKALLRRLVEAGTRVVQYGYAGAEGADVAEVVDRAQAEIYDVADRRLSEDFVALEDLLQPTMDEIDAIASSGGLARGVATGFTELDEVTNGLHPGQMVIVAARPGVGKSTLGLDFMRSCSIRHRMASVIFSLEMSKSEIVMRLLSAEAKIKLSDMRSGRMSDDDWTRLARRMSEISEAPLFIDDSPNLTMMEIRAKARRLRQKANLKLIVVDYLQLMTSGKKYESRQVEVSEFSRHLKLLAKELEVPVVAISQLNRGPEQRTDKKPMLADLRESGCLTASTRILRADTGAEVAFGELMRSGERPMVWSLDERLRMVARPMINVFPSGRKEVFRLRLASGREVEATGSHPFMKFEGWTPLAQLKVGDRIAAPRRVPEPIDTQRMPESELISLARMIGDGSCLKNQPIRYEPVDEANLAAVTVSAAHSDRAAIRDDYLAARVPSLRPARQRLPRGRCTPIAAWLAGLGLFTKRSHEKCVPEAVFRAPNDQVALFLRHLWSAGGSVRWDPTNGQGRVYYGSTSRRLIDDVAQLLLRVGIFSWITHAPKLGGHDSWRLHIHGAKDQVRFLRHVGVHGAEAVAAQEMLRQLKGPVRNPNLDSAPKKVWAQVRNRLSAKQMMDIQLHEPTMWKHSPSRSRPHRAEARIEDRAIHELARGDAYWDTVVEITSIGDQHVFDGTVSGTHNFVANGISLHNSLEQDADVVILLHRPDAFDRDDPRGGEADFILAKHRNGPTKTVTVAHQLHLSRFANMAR

[4] = target: T3, Protein RecA (Mycobacterium tuberculosis, UniProt P9WHJ3); assay: Fluorescence Cell-Free Homogeneous Dose Retest to Identify Inhibitors of RecA-Intein Splicing Activity. [Related pubchem assays (depositor defined):AID2097, AID2223, AID489010, AID492950]; format: functional
T3 sequence (P9WHJ3 whole entry): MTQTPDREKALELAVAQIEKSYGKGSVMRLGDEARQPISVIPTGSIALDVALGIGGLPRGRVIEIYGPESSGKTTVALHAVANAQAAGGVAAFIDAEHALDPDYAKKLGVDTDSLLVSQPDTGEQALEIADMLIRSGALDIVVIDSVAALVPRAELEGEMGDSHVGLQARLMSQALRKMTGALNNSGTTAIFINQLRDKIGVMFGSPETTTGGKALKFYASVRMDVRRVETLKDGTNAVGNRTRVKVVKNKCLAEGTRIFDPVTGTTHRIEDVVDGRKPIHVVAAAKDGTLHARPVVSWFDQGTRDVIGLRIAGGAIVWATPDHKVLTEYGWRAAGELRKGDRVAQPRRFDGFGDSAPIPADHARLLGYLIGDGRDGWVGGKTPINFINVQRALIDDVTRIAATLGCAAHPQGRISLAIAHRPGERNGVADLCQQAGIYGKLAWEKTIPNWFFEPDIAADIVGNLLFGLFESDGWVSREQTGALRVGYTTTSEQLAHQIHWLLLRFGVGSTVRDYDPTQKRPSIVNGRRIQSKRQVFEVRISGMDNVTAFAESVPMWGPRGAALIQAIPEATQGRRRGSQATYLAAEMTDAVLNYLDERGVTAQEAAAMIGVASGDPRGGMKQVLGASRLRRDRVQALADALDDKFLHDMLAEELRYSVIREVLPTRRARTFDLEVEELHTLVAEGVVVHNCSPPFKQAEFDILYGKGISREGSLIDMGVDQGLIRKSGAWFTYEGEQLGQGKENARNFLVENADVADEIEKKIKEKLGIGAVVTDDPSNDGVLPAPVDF

[5] = target: Luciferin 4-monooxygenase (Photinus pyralis, UniProt P08659); assay: firefly luciferase enzyme inhibitors, dose response, biochemical, luminescence (AID 1891)
[6] = Luminescence Cell-Based Dose Confirmation HTS to Identify Inhibitors of Platelet Dense Granule Release. [Related pubchem assays: 1663 (Primary HTS), 1678 (Summary of Project)]; format: functional
[7] = target: T4, Rac GTPase-activating protein 1 (Homo sapiens, UniProt Q9H0H5); assay: MgcRacGAP GTPase-activating activity inhibitors, confirmation, biochemical, ADP Hunter fluorescence, primary and confirmatory (AID 624330); format: functional
T4 sequence (Q9H0H5 whole entry): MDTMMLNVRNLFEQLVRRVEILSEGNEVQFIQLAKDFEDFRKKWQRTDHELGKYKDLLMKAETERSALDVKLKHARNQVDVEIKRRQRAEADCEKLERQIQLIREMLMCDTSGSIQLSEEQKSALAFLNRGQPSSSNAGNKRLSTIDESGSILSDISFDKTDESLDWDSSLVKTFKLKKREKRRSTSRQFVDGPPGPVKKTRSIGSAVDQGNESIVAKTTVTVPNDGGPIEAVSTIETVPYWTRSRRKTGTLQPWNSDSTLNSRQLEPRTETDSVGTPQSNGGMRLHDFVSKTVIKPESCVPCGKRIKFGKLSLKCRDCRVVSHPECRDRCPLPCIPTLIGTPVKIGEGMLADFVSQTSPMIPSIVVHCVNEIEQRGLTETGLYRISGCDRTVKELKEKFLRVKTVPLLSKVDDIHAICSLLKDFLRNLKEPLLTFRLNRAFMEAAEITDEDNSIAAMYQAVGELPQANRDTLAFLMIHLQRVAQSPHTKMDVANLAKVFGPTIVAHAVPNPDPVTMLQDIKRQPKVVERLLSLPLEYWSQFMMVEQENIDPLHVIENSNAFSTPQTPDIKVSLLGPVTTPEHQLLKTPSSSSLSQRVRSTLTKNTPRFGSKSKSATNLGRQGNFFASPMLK

[8] = tested on: INS1; assay: beta cell apoptosis inhibitors, cytokine rescue, dose response, luminescence, retest (AID 449756); format: functional, cell-based; conditions: Rattus norvegicus;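 note: cell death triggered by IL-1 beta plus TNF-alpha plus IFN-gamma mixture; protective hits raise ATP signal compared with cytokine alone wells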
[9] = tested on: Streptococcus; assay: Group A Streptococcus viability loss, dose response, counter-screen for streptokinase expression inhibitor project, luminescence, BacTiterGlo (AID 1915); format: functional, organism-based;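 note: potency for reduction of bacterial viability or growth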
[10] = tested on: Streptococcus sp. 'group A'; assay: growth inhibition of control SK(-) GAS strain, dose response, counter-screen for streptokinase expression inhibitor project, luminescence, kanamycin, BacTiterGlo, confirmation (AID 1900); format: functional, organism-based

Luciferin 4-monooxygenase, sequence (P08659 whole entry): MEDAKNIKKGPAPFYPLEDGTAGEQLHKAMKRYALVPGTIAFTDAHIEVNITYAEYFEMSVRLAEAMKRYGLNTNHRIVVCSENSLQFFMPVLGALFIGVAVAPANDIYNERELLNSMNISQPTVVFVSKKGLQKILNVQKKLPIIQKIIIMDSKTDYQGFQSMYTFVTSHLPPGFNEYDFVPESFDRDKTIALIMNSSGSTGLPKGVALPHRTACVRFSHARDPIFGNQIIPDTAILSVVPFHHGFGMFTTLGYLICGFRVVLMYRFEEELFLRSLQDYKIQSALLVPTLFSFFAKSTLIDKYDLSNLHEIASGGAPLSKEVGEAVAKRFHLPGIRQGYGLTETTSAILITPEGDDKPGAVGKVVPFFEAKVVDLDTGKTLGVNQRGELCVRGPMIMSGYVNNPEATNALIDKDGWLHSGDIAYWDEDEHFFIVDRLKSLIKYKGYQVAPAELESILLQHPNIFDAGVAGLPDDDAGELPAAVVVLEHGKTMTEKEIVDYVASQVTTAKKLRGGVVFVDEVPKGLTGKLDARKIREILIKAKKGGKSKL

For Cc1ccccc1OCC(=O)OCC(=O)c1c[nH]c2ccccc12, the EC50 [1] was > 53 µM (inactive) and the IC50 [2] was > 47.1 µM (inactive).
In the case of CC1CCCCC1NC(=O)NC(=O)CCl (stereo not drawn), the AC50 [3] is reported as 22.5 µM (active) and the EC50 [4] is reported as 12.3 µM (active).
With COc1cc(CNc2ccccc2SC)ccc1O the EC50 [1] was > 53 µM (inactive), the IC50 [2] was > 47.1 µM (inactive) and the EC50 [5] was > 112 µM (not active). The EC50 [6] was > 112 µM (not active).
In the case of Cc1cc(C)c(OCC(O)CN2CCN(C(=O)c3ccccc3)CC2)c(C)c1 (stereo not drawn), the IC50 [7] is reported as 139 µM (active).
In the case of Cc1n[nH]c2c1C(c1cccs1)C(C#N)=C(N)O2 (stereo not drawn), the AC50 [3] is reported as 24.7 µM (active) and the EC50 [4] is reported as 4.74 µM (active).
With O=S1(=O)CCN(Cc2csc(-c3cccs3)n2)CC1 the EC50 [5] was > 112 µM (not active), the AC50 [8] was 145 µM (active) and the EC50 [6] was 17.9 µM (active).
For Cc1cccc(-n2c(C)cc(/C=N/n3cnnc3)c2C)c1, the AC50 [8] was 14.1 µM (active).
With O=C(CNc1ccc(F)cc1)N/N=C/c1c(O)ccc2ccccc12 the EC50 [9] was 1.67 µM (active), the EC50 [10] was 0.846 µM (active) and the AC50 [8] was 2.94 µM (active).
With O=C(Nc1ccccc1SCC1CSc2nc3ccccc3c(=O)n21)c1ccccc1 (stereo not drawn) the EC50 [1] was > 53 µM (inactive) and the IC50 [2] was > 47.1 µM (inactive).
For COc1cc(CN2CCN(C(=O)CC(C)C)CC2)cc(OC)c1O, the IC50 [7] was 78.6 µM (active).
For C=C[C@H](Cc1ccccc1)N(Cc1ccccc1)S(=O)(=O)N(Cc1ccccc1)[C@H](C=C)Cc1ccccc1, the AC50 [8] was 4.47 µM (active).
In the case of CCOC(=O)N1CCC(N2CCN(S(=O)(=O)c3ccc4ccccc4c3)CC2)CC1, the IC50 [7] is reported as 151 µM (active).
